This is an account of results in patent US20250115620A1, “BRIDGED TRICYCLIC CARBAMOYLPYRIDONE COMPOUNDS AND USES THEREOF” (Gilead Sciences, Inc., priority 2022, published 2025).

pEC50: −log10 of the molar value. Read-outs that look alike come from different tables or passages of the source.

One data set relates to HIV-1 (IIIB). In words: microbe, parasite or virus in culture. It is filed as cell-based. The following applies: HIV-1 (IIIB) in MT-4 cells, 5 days incubation, Cell Titer Glo, read-out: MT4 EC50. (In general: Cellular ATP, detected with luciferase, serves as a proxy for viable cell number.)
For another data set, the system named is pLAI reporter virus. Nature of the data set: microbe, parasite or virus in culture. The class given is cell-based, HIV.
Data set [1] in a line: Half life, PK in monkeys after intravenous infusion. The class given is in vivo. The following applies: cynomolgus, monkey, single-dose intravenous infusion for 30 minutes, plasma, read-out: Cyno half-life (converted). How it is done: Test compound PK was determined in monkeys (Labcorp, Madison, WI) following a single-dose intravenous infusion for 30 minutes. The dosing vehicle was a mixture of N-methylpyrrolidone, polyethylene glycol 300, and water for intravenous administration in monkeys. […] Nonclinical plasma samples were prepared by addition of 200 μl cold acetonitrile/internal standard solution to 96-well plates containing 50 μl aliquots of each plasma sample. After protein precipitation, each of the supernatants (50 μl) were transferred to clean 96-well plates and diluted with 450 μl of water. The sample injection volume was 2 μl. Samples were analyzed by a multiple reaction monitoring LC-MS/MS method. […] Thermo Fisher Scientific), and the ABSciex QTRAP5500 Mass Spectrometer LC-MS/MS system. […] The following plasma PK parameters were estimated in nonclinical species (as appropriate): observed peak plasma concentration (Cmax), time to reach Cmax (Tmax), last quantifiable plasma concentration (Clast), t1/2, time of Clast (Tlast), area under the plasma concentration-time curve (AUC) from time 0 [NT], AUC from time 0 to infinity (AUCinf), CL, mean residence time (MRT), and volume of distribution at steady state (Vss).

A further data set relates to E138K/Q148K. Nature of the data set: HIV double mutant assay in MT-4 cells. It is filed as cell-based. Conditions: E138K/Q148K vs wild type HXB2, MT-4 cells, 5 day incubation. As for the experimental part:
(§1) The HIV double mutant assay assesses the changes in efficacy of antiviral compounds against viral mutants compared to wild type. Each of the three mutant virus strains in this panel contain two amino acid substitutions ([…], E138K/Q148K and E92Q/N155H) of the parental HXB2. Test compounds and controls were serially diluted and spotted in replicates into 384 well black assay plates using acoustic transfer (Echo). Replicate sets of plates were made for each strain. MT-4 cells were grown in batch, centrifuged and resuspended in fresh CCM media (RPMI w/10% FBS, 1% PS) at 2×10^6 cells/ml. Cells were batch infected with each mutant strain at optimized volumes (currently HXB2 25 ul/ml; […], E138K/Q148K and E92Q/N155H at 40 ul/ml cells). The size of each infection mix was based on number of sample plates to be tested. Each infection mix was transferred into 5 ml closed tubes and nutated rapidly on a shaker at 37 deg. incubator for 1 hour. The infection mixes were then diluted 25× in fresh CCM media then added to assay plates at 40 ul per well using a Viaflo 384 pipettor. After 5 day incubation at 37 degrees in a CO2 incubator, assay plates were processed with Cell-titer glo reagent using a ViaFlo 384 with an addition/mixing program. Plates were read immediately on Envision reader. Assay signals were plotted and dose response curves generated to determine individual compound EC50s. The effect of each mutation was assessed by comparing EC50s of wild type and mutant strains.

The subject of the next data set is E92Q/N155H. Nature of the data set: HIV double mutant assay in MT-4 cells. The class given is cell-based. The following applies: E92Q/N155H vs wild type HXB2, MT-4 cells, 5 day incubation. As for the experimental part:
as §1

A further data set relates to G140S/Q148R. Nature of the data set: HIV double mutant assay in MT-4 cells. The following applies: G140S/Q148R vs wild type HXB2, MT-4 cells, 5 day incubation. It is filed as cell-based. How it is done: as §1
A short description of a further data set: in vitro. The following applies: human, uninfected MT-4 cells.
In the next data set the test system is MT-4 cells. In words: Cytotoxicity assay in MT-4 cells. Conditions: uninfected MT-4 cells.
Where [2] appears, read: Human immunodeficiency virus 1, IIIB, MT4, 120 h.
Setting [3] is: Human immunodeficiency virus 1, MT4, 72 h, read-out: RLUC 50% HS EC50.
[4] abbreviates: Human immunodeficiency virus 1, MT4, 72 h, read-out: RLUC CCM EC50.

Consider `CC1=NO[C@@]2(CC[C@H](C)N3C[C@H]2n2cc(C(=O)NCc4ccc(F)cc4F)c(=O)c(O)c2C3=O)C1` [Example 1, (3'S,5S,7′R)—N-(2,4-difluorobenzyl)-12′-hydroxy-3,3′-dimethyl-1′,11′-dioxo-1′,4′,5′,11′-tetrahydro-3′H,4H,7′H-spiro[isoxazole-5,6′-[2,7]methanopyrido[1,2-a][1,4]diazonine]-10′-carboxamide], for which the pEC50 with HIV-1 (IIIB) (setting [2]) is 9.10; in the data set on pLAI reporter virus (setting [3]), 7.04; with pLAI reporter virus (setting [4]), 9.52; in the data set on pLAI reporter virus (read-out: RLUC CCM EC50) it was 9.60. Moreover, the half-life in data set [1] was 29 h. The “Double Mutant Shift (fold over wild type)” value amounted to 3× in the data set on E138K/Q148K, 1× in the data set on E92Q/N155H and 4× in the data set with G140S/Q148R. In “in vitro”, this compound returned a CC50 at 5 days of 20400 nM.

As for “(3′S,5S,7′R)—N-((2,4-difluorophenyl)methyl-d2)-12′-hydroxy-3,3′-dimethyl-1′,11′-dioxo-1′,4′,5′,11′-tetrahydro-3′H,4H,7′H-spiro[isoxazole-5,6′-[2,7]methanopyrido[1,2-a][1,4]diazonine]-10′-carboxamide-N′-^15N [Example 151]”, the pEC50 in the data set with HIV-1 (IIIB) was 8.74; in the data set with pLAI reporter virus (CCM media (RPMI/10% FBS), MT-4 cells, 3 days, read-out: RLUC CCM EC50) it was 9.52; in the data set with pLAI reporter virus (read-out: RLUC 50% HS EC50, 50% human serum media, MT-4 cells, 3 days) it was 7.16. Further, the CC50 with MT-4 cells was 13800 nM.

With `O=C(NCc1c(F)cc(F)cc1F)c1cn2c(c(O)c1=O)C(=O)N1CCCC[C@H]2C1` [Reference Compound A], the figures for the pEC50 in the data set on HIV-1 (IIIB) (setting [2]), in the data set on pLAI reporter virus (setting [3]) and in the data set with pLAI reporter virus (setting [4]) were 8.96, 8.70 and 9.46, respectively. Moreover, in data set [1], the half-life is 3 h. Besides, the “Double Mutant Shift (fold over wild type)” value was 13× in the data set on E138K/Q148K, 2× in the data set on E92Q/N155H and 10× in the data set on G140S/Q148R.

Turning to `O=C(NCc1ccc(F)cc1F)c1cn2c(c(O)c1=O)C(=O)N1CCCC[C@H]2C1` [Reference Compound B], the pEC50 in the data set with HIV-1 (IIIB) (setting [2]) is 8.82; in the data set on pLAI reporter virus (setting [3]), 8.96; in the data set on pLAI reporter virus (setting [4]), 9.55. In addition, the half-life in data set [1] was 5 h. Besides, the “Double Mutant Shift (fold over wild type)” value with E138K/Q148K is 18×; with E92Q/N155H, 3×; in the data set on G140S/Q148R, 12×.

Regarding `C[C@H]1CCC[C@H]2CN1C(=O)c1c(O)c(=O)c(C(=O)NCc3ccc(F)cc3F)cn12` [Reference Compound D], the pEC50 with HIV-1 (IIIB) (setting [2]) is 8.89; with pLAI reporter virus (setting [3]) it was 8.12; with pLAI reporter virus (setting [4]) it was 9.66. The half-life in data set [1] was 3 h. The “Double Mutant Shift (fold over wild type)” value in the data set with E138K/Q148K is 6×; with E92Q/N155H, 1×; in the data set on G140S/Q148R, 5×.

As for `COC1=NO[C@@]2(CC[C@H](C)N3C[C@H]2n2cc(C(=O)NCc4ccc(F)cc4F)c(=O)c(O)c2C3=O)C1` [Example 40, (3′S,5S,7′R)—N-(2,4-difluorobenzyl)-12′-hydroxy-3-methoxy-3′-methyl-1′,11′-dioxo-1′,4′,5′,11′-tetrahydro-3′H,4H,7′H-spiro[isoxazole-5,6′-[2,7]methanopyrido[1,2-a][1,4]diazonine]-10′-carboxamide], the pEC50 in the data set on HIV-1 (IIIB) (setting [2]) is 9.10; in the data set with pLAI reporter virus (setting [3]) it was 7.65; in the data set with pLAI reporter virus (setting [4]) it was 9.70. The half-life in data set [1] was 12 h. For the same compound, the “Double Mutant Shift (fold over wild type)” value in the data set with E138K/Q148K came to 4×; with E92Q/N155H, 1×; in the data set with G140S/Q148R, 5×. Also, in “in vitro”, half-maximal cytotoxicity (CC50 at 5 days) was put at 34100 nM.

As for `C[C@H]1CC[C@]2(CC(CF)=NO2)[C@H]2CN1C(=O)c1c(O)c(=O)c(C(=O)NCc3ncc(F)c(Cl)c3F)cn12` [Example 66, (3′S,5S,7′R)—N-((4-chloro-3,5-difluoropyridin-2-yl)methyl)-3-(fluoromethyl)-12′-hydroxy-3′-methyl-1′,11′-dioxo-1′,4′,5′,11′-tetrahydro-3′H,4H,7′H-spiro[isoxazole-5,6′-[2,7]methanopyrido[1,2-a][1,4]diazonine]-10′-carboxamide], the values for the pEC50 with HIV-1 (IIIB) (setting [2]), with pLAI reporter virus (setting [3]) and with pLAI reporter virus (setting [4]) were 8.41, 6.25 and 9.10, respectively. The CC50 at 5 days in the data set “in vitro” came out at 30100 nM.

`CC1=NO[C@@]2(CC[C@H](C)N3C[C@H]2n2cc(C(=O)NCc4ccc(F)cc4F)c(=O)c(O)c2C3=O)N1` [Example 148, (3′S,5R,7′R)—N-(2,4-difluorobenzyl)-12′-hydroxy-3,3′-dimethyl-1′,11′-dioxo-1′,4′,5′,11′-tetrahydro-3′H,4H,7′H-spiro[[1,2,4]oxadiazole-5,6′-[2,7]methanopyrido[1,2-a][1,4]diazonine]-10′-carboxamide]: the pEC50 was 8.47 with HIV-1 (IIIB) (setting [2]), 7.68 in the data set with pLAI reporter virus (setting [3]) and 8.96 in the data set on pLAI reporter virus (setting [4]). For the same compound, the CC50 at 5 days in “in vitro” is at least 50000 nM.

Turning to `C[C@H]1CC[C@@]2(COCO2)[C@H]2CN1C(=O)c1c(O)c(=O)c(C(=O)NCc3c(F)cc(F)cc3F)cn12` [Example 131, (3′S,4S,7′R)-12′-hydroxy-3′-methyl-1′,11′-dioxo-N-(2,4,6-trifluorobenzyl)-1′,4′,5′,11′-tetrahydro-3′H,7′H-spiro[[1,3]dioxolane-4,6′-[2,7]methanopyrido[1,2-a][1,4]diazonine]-10′-carboxamide], the pEC50 was 8.72 in the data set with HIV-1 (IIIB) (setting [2]), 8.09 with pLAI reporter virus (setting [3]) and 9.30 in the data set with pLAI reporter virus (setting [4]). In “in vitro”, the CC50 at 5 days stood at 28900 nM.

On to `C[C@H]1CC[C@]2(CCC(=O)N2)[C@H]2CN1C(=O)c1c(O)c(=O)c(C(=O)NCc3c(F)cc(F)cc3F)cn12` [Example 121, (2S,3′S,7′R)-12′-hydroxy-3′-methyl-1′,5,11′-trioxo-N-(2,4,6-trifluorobenzyl)-1′,4′,5′,11′-tetrahydro-3′H,7′H-spiro[pyrrolidine-2,6′-[2,7]methanopyrido[1,2-a][1,4]diazonine]-10′-carboxamide], for which the pEC50 in the data set with HIV-1 (IIIB) (setting [2]) was 7.06; with pLAI reporter virus (setting [3]) it was 7.70; with pLAI reporter virus (setting [4]), 7.77. This compound yielded a CC50 at 5 days in “in vitro” of at least 50000 nM.

`O=C(NCc1ccc(F)cc1F)c1cn2c(c(O)c1=O)C(=O)N1CCCC3(CC3)[C@H]2C1` [Reference Compound C, reference compound]: the pEC50 is 8.92 in the data set on HIV-1 (IIIB) (setting [2]), 8.70 in the data set on pLAI reporter virus (setting [3]) and 9.60 in the data set on pLAI reporter virus (setting [4]). Moreover, the “Double Mutant Shift (fold over wild type)” value with E138K/Q148K was 3×; with E92Q/N155H, 2×; with G140S/Q148R, 5×.

With `C[C@H]1CC[C@@]2(ON=C(CF)[C@@H]2O)[C@H]2CN1C(=O)c1c(O)c(=O)c(C(=O)NCc3ccc(F)cc3F)cn12` [Example 89, (3′S,4S,5R,7′R)—N-(2,4-difluorobenzyl)-3-(fluoromethyl)-4,12′-dihydroxy-3′-methyl-1′,11′-dioxo-1′,4′,5′,11′-tetrahydro-3′H,4H,7′H-spiro[isoxazole-5,6′-[2,7]methanopyrido[1,2-a][1,4]diazonine]-10′-carboxamide], the figures for the pEC50 in the data set on HIV-1 (IIIB) (setting [2]), in the data set with pLAI reporter virus (setting [3]) and with pLAI reporter virus (setting [4]) were 8.89, 7.20 and 9.40, respectively. Also, the CC50 at 5 days in the data set “in vitro” is at least 50000 nM.

The pEC50 is the negative decadic logarithm of the EC50, by convention in mol/L. What is called half-life is the time needed for the level to fall by half in the phase considered. In general, CC50 refers to the concentration at which the toxic effect on the cells reaches its halfway point. High values mean lower toxicity to the cells, low ones greater toxicity to the cells.
